Results as given in patent US20090305963A1, “Lipocalin 2 for the Treatment, Prevention, and Management of Cancer Metastasis, Angiogenesis, and Fibrosis” (priority 2005, published 2009).
Counter-ions that a name gives are not always drawn. Values belong to the molecule of their own block, whether it stands above or below them. Where a SMILES comes first, the peptide text is derived from it. The star is where a group is joined. Cbz = O=C(OCc1ccccc1)*

Legend:
[1] = tested on: E-cadherin; experiment: EMT phenotype, E-cadherin and vimentin protein in 4T1 clones (microscopy, western blot); assay type: cell-based, mouse; conditions: for rank order of effect on R cell epithelial morphology and E-cadherin expression: R cells, 15 or 50 μg/ml, dose dependent
Source text: (§1) Cells were stained as described previously (Mammoto et al., Cancer Lett. 184:165-170, 2002) and images acquired with a Delta Vision system (Applied Precision, Issaquah, Wash.) equipped with an Axiovert 100 microscope (Carl Zeiss MicroImaging Inc., Shelton, Conn.) and a Photometrics 300 series scientific-grade cooled CCD camera, reading 12-bit images, and using the 63/1.4 NA plan-Neofluar objective. For immunoprecipitation and immunoblotting, tissues were weighed, diced, soaked in ice cold RIPA buffer with 1 mM phenylmethylsulfonyl fluoride (PMSF), 1 μg/ml Aprotinin, 1 mM Na3VO4, 1 nM NaF, homogenized on ice, centrifuged at 10,000 g for 10 minutes at 4° C., and the supernatant fluid collected as total cell lysate. Cultured cells were washed, scraped, and solubilized in a lysis buffer containing 20 mM Tris-HCl pH 7.5, 150 mM NaCl, 0.5% Triton X-100, 1% aprotinin, and 1 mM PMSF. After 20 minutes on ice, the cells were pelleted by centrifugation and the supernatants were used as a cell lysate. Cell lysates or immunoprecipitated cell lysates were separated by PAGE (NuPAGE® gels; Invitrogen, Carlsbad, Calif.), followed by electroblotting onto a polyvinylidenedifluoride membrane (PVDF). Protein bands were detected using SuperSignal® West Pico Chemiluminescent Substrate (Pierce Chemical Co., Rockford, Ill.) (Hanai et al., J. Cell. Biol. 158:529-539, 2002).
To assess the effects of lipocalin 2 on ras-mediated transformation, we chose a syngeneic spontaneously metastasizing murine breast cancer model (4T1 cell line) and accelerated its metastatic potential by introduction of constitutively active mouse H-ras mutant A12 using retrovirus. […] We generated stable clones of 4T1-ras cells expressing lipocalin 2 (RL) by transfection of a lipocalin 2 expression plasmid (lipocalin 2-pcDNA3.1). […] (FIG. 2A, lower panel, and FIG. 2B). […] Expression of E-cadherin in RL cells was dependent on the dose of lipocalin 2-pcDNA3.1 expression vector (transiently introduced in a population of R cells), on a conditioned medium containing lipocalin 2 (FIGS. 2D-E), as well as on recombinant lipocalin 2 protein. R cells shown in FIG. 2D were seeded in a 6-well plate and transfected with lipocalin 2 by FuGene 6 at 40% confluency. After 48 hours, cells were trypsinized, respread on 6-well plate, and transfected again in the same conditions. After 72 hours, cells were harvested and analyzed by western blotting. EV cells in FIG. 2E were seeded in a 6-well plate with 1 ml/well containing 10% FCS with DMEM and 2 ml of CM was added at 10% confluency. After 72 hours, cells were harvested and analyzed by western blotting. CM is a mixture of media from 293T cells transfected with lipocalin 2 and from 293 cells transfected with empty vector (pcDNA3.1).

[2] = tested on: E-cadherin; experiment: Induction of E-cadherin in embryonic mesenchyme; assay type: cell-based, rat; conditions: enterochelin siderophore complex with gallium instead of iron
[3] = tested on: VEGF; experiment: Measurement of VEGF levels by ELISA in conditioned media of 4T1 cells; assay type: cell-based, mouse; conditions: R cells; 2 days of incubation; dose dependent
Method: Conditioned media of 4T1 cells were collected after 2 days of incubation. Murine VEGF levels were determined in duplicate using a commercially available sandwich ELISA kit (R&D Systems, Minneapolis, Minn.), with a affinity purified polyclonal antibody specific for mouse VEGF has been pre-coated onto a microplate. Results were compared with a standard curve of mouse VEGF with a lower detection limit of 7 pg/mL. A model 680 microplate-reader (Bio-Rad Laboratories, CA) was used to measure light intensity correlating with VEGF binding.

[4] = tested on: E-cadherin; experiment: E-cadherin phosphorylation (immunoprecipitation and western blot); assay type: cell-based, mouse; conditions: R cells vs RL cells or R cells with inhibitor
Source text: as §1

[5] = tested on: raf, MEK, and ERK1/2; experiment: Western blots with phosphospecific antibodies for ras-MAPK signaling molecules; assay type: cell-based, mouse; conditions: R cells
Source text: as §1, with “After 20 minutes on ice, the cells were pelleted by centrifugation and the supernatants were used as a cell lysate. Cell lysates or immunoprecipitated cell lysates were separated by PAGE (NuPAGE® gels; Invitrogen, Carlsbad, Calif.), followed by electroblotting onto a polyvinylidenedifluoride membrane (PVDF).” left out
For these experiments, EV and R cells were starved in DMEM without serum for 48 hours. […] Signaling events downstream of ERK activation were then monitored with a multi-copy serum-response element (SRE)-luciferase construct introduced into EV, R, and RL (FIG. 6B). […]

[6] = tested on: serum-response element (SRE); experiment: SRE-luciferase assay; assay type: cell-based, mouse
Method: After transient transfection of the plasmids, cells were incubated for 20 hours in 10% FCS and luciferase activity in the cell lysates was determined using a luminometer normalized by sea-pansy luciferase activity under the control of the thymidine kinase promoter. The Dual-Luciferase Reporter Assay System was purchased from Promega (Madison, Wis.) (Hanai et al., J. Biol. Chem. 277:16464-16469, 2002).
For these experiments, EV and R cells were starved in DMEM without serum for 48 hours. During this time, half of the R cells were incubated with 50 μg/ml of lipocalin 2 protein with iron-loaded siderophore (R+Lipo:Sid:Fe), after which all cells were incubated with 10% FCS containing DMEM for 20 minutes and then harvested for western blotting with phosphospecific antibodies. Signaling events downstream of ERK activation were then monitored with a multi-copy serum-response element (SRE)-luciferase construct introduced into EV, R, and RL (FIG. 6B). For these experiments, an SRE-luciferase assay was performed on 4T1 clones after the 48 hour incubation in serum free DMEM. […] Just like R cells treated with exogenous protein (FIG. 6A), R cells infection with recombinant adenovirus carrying lipocalin 2, but not GFP, reduced SRE-luciferase activity, MEK, and ERK1/2 phosphorylation, without altering ras expression.
To localize the effect of lipocalin on ras-MAPK signaling, we utilized an adenovirus and expression plasmid encoding a constitutively active MEK (MEK-DD) (Murakami et al., Cell Growth Differ 10:333-342, 1999). MEK-DD adenoviral infection of EV cells led to increased SRE-luciferase activity (increased MAPK activity). […] RL cells in a 6-well plate were infected with an adenovirus carrying the MEK dominant active form (MEK-DD) and a Lac-Z adenovirus at the indicated multiplicities (MOI) in 2% serum including DMEM medium for 48 hours. Cells were then trypsinized, respread on 6-well plate at 5-10% confluency, and incubated with 10% serum including DMEM medium. Cell lysates were collected for western blotting 48 hours after the final plating (FIG. 6D). […]

Molecule: CC(C)C[C@@H](C=O)NC(=O)[C@H](CC(C)C)NC(=O)[C@H](CC(C)C)NC(=O)OCc1ccccc1 [MG132] (Cbz-Leu-Leu-Leu-aldehyde)
- E-cadherin protein in EV cells ([1]; 0.5 nM for 2 days): increased E-cadherin protein
- E-cadherin protein in R cells ([1]; 0.5 nM for 2 days): increased E-cadherin protein
- E-cadherin protein in RL cells ([1]; 0.5 nM for 2 days): only slightly increased E-cadherin
- phenotype of R cells ([1]; 0.5 nM for 48 hours): reverted R cells to an epithelial phenotype

Molecule: [Ga] [gallium]
- induction of E-cadherin in mesenchyme when iron is substituted [2]: greatly diminished

Molecule: O=c1cc(N2CCOCC2)oc2c(-c3ccccc3)cccc12 [LY294002]
- maximum inhibition of VEGF production, each inhibitor alone [3]: approximately 50%

Molecule: O=S(=O)([O-])[O-].O=S(=O)([O-])[O-].[Fe+3].[NH4+] [ferric ammonium sulfate]
- phenotype of R cells after adding iron ([1]; 50 μM): did not change their phenotype

Molecule: N#CC(=C(/N)Sc1ccccc1N)/C(C#N)=C(\N)Sc1ccccc1N [U0126]
- maximum inhibition of VEGF production, each inhibitor alone [3]: approximately 50%
- effect on ras-induced EMT [1]: reversed ras-induced EMT
- E-cadherin phosphorylation [4]: markedly downregulated

Molecule: CC(=O)N(O)CCCCCNC(=O)CCC(=O)N(O)CCCCCNC(=O)CCC(=O)N(O)CCCCCN [DFO, Deferoxamine mesylate]
- E-cadherin expression in RL cells ([1]; 2-5 μM, 48 hours): suppressed E-cadherin expression
- morphology of RL cells ([1]; 2-5 μM, 48 hours): changed the morphology of RL cells to a mesenchymal phenotype

- SRE-luciferase activity induced by CA-H-ras ([6]; EV cells transfected with H-ras V12): downregulated SRE-luciferase activity
- inhibition of MEK-DD induced SRE-luciferase activity ([6]; EV cells transfected with MEK-DD): unable to inhibit this effect
B1: Lipo:Sid:Fe: recombinant mouse lipocalin 2 mixed with iron-loaded bacterial siderophore enterochelin (protein, UniProt P11672 21-200, looked up)
Neutrophil …: QDSTQNLIPAPSLLTVPLQPDFRSDQFRGRWYVVGLAGNAVQKKTEGSFTMYSTIYELQENNSYNVTSILVRDQDQGCRYWIRTFVPSSRAGQFTLGNMHRYPQVQSYNVQVATTDYNQFAMVFFRKTSENKQYFKITLYGRTKELSPELKERFTRFAKSLGLKDDNIIFSVPTDQCIDN
modifications: iron-loaded enterochelin siderophore complex
notes: recombinant mouse lipocalin 2 mixed with iron-loaded bacterial siderophore enterochelin
- rank order of effect on R cell epithelial morphology and E-cadherin expression [1]: Lipo:Sid:Fe>Lipo:Sid>Lipo
- total ras expression ([5]; 50 μg/ml for 48 hours): unchanged
- ras induced phosphorylation of raf, MEK, and ERK1/2 ([5]; 50 μg/ml for 48 hours serum free, then 10% FCS 20 minutes): largely abrogated

B2: Lipo: recombinant mouse lipocalin 2 protein expressed in E. coli BL21, without siderophore (protein, UniProt P11672 21-200, looked up)
Neutrophil …: B1 Neutrophil …
- rank order of effect on R cell epithelial morphology and E-cadherin expression [1]: Lipo:Sid:Fe>Lipo:Sid>Lipo

B3: Lipo:Sid: recombinant mouse lipocalin 2 mixed with iron-unloaded bacterial siderophore enterochelin (protein, UniProt P11672 21-200, looked up)
Neutrophil …: B1 Neutrophil …
modifications: iron-free enterochelin siderophore
notes: recombinant mouse lipocalin 2 mixed with iron-unloaded bacterial siderophore enterochelin
- rank order of effect on R cell epithelial morphology and E-cadherin expression [1]: Lipo:Sid:Fe>Lipo:Sid>Lipo
